Patent publication US11753409B2, “Crystalline salts of a B-RAF kinase inhibitor” (Xynomic Pharmaceuticals, Inc., priority 2017, dated 2023)
Where two headings read alike, the source gives them in different places.

Key:
[1] = Intrinsic dissolution rate, rotating disc method; assay type: physicochemical; settings: pH of medium 1.0 (0.1M HCl), 37° C.
[2] = Milling and compression stress followed by XRPD; assay type: physicochemical
Experimental: FIG. 20 is a plot of the XRPD of N-(3-(5-((1-ethylpiperidin-4-yl)(methyl)amino)-3-(pyrimidin-5-yl)-1H-pyrrolo[3,2-b]pyridin-1-yl)-2,4-difluorophenyl)propane-1-sulfonamide monohydrochloride salt following milling in a swing mill for 10 min. at 30 rps.
FIG. 21 is a plot of the XRPD of N-(3-(5-((1-ethylpiperidin-4-yl)(methyl)amino)-3-(pyrimidin-5-yl)-1H-pyrrolo[3,2-b]pyridin-1-yl)-2,4-difluorophenyl)propane-1-sulfonamide monohydrochloride salt following compression at 2000 N for 1 s to a tablet (diameter-5 mm).
FIG. 31 is a plot of the XRPD of N-(3-(5-((1-ethylpiperidin-4-yl)(methyl)amino)-3-(pyrimidin-5-yl)-1H-pyrrolo[3,2-b]pyridin-1-yl)-2,4-difluorophenyl)propane-1-sulfonamide monosuccinate salt following milling in a swing mill for 10 min. at 30 rps.
FIG. 32 is a plot of the XRPD of N-(3-(5-((1-ethylpiperidin-4-yl)(methyl)amino)-3-(pyrimidin-5-yl)-1H-pyrrolo[3,2-b]pyridin-1-yl)-2,4-difluorophenyl)propane-1-sulfonamide monosuccinate salt following compression at 2000 N for 1 s to a tablet (diameter-5 mm).

[3] = Pharmacokinetics following oral administration to rats; assay type: in vivo, HsdHan:WIST Norway rats; settings: rat; for AUD: AUD range 0-6 h; for concentration at 24 h: mean n = 3, read-out: Blood Plasma Concentrations
Experimental: The pharmacokinetics of N-(3-(5-((1-ethylpiperidin-4-yl)(methyl)amino)-3-(pyrimidin-5-yl)-1H-pyrrolo[3,2-b]pyridin-1-yl)-2,4-difluorophenyl)propane-1-sulfonamide hydrochloride salt and N-(3-(5-((1-ethylpiperidin-4-yl)(methyl)amino)-3-(pyrimidin-5-yl)-1H-pyrrolo[3,2-b]pyridin-1-yl)-2,4-difluorophenyl)propane-1-sulfonamide […] following oral administration at 40 mg and 80 mg (dose calculated as the free base) to HsdHan:WIST Norway rats. Each salt was administered to 3 animals.

[4] = Intrinsic dissolution rate, rotating disc method; assay type: physicochemical
Experimental: The intrinsic dissolution rate of 3-(5-((1-ethylpiperidin-4-yl)(methyl)amino)-3-(pyrimidin-5-yl)-1H-pyrrolo[3,2-b]pyridin-1-yl)-2,4-difluorophenyl)propane-1-sulfonamide salts was determined in aqueous media covering a range of pH 1.1-7.4 using the rotating disc method which maintains a constant surface area.
The drug substance (5 mg) was compressed at 356.1 Newtons for 60 s to form a disk. These disks were mounted to sample holders which fit into a miniaturized dissolution testing apparatus. The dissolution media were stirred at 200 rpm at a temperature of 37° C. Samples were automatically withdrawn every second minute from the dissolution vessel and assayed by UV spectrophotometry.
The intrinsic dissolution rate of N-(3-(5-((1-ethylpiperidin-4-yl)(methyl)amino)-3-(pyrimidin-5-yl)-TH-pyrrolo[3,2-b]pyridin-1-yl)-2,4-difluorophenyl)propane-1-sulfonamide monohydrochloride salt in various media was measured in media at various pH values.
The intrinsic dissolution rate of N-(3-(5-((1-ethylpiperidin-4-yl)(methyl)amino)-3-(pyrimidin-5-yl)-1H-pyrrolo[3,2-b]pyridin-1-yl)-2,4-difluorophenyl)propane-1-sulfonamide monosuccinate salt in various media was measured in media at various pH values.

[5] = Sorption-desorption (DVS) of the salts with XRPD before and after; assay type: physicochemical
Experimental: Dynamic Vapor Sorption (DVS) was performed in a IGAsorp Water Sorption Analyzer from Hiden Isochema. Adsorption and desorption isotherms were performed at 25° C. with 10% RH step intervals ranging from 0% relative humidity up to 90% relative humidity.

[6] = Equilibrium solubility in various aqueous media (solubility after 2 h); assay type: physicochemical; settings: thermodynamic from solid
Experimental: Saturated solutions are prepared in well plates by adding an appropriate volume of selected aqueous media (typically in the range of 0.25-1.5 mL) into each well which contains a known quantity of solid drug substance (typically in the range 0.5-5.0 mg). The wells are shaken or stirred for a predefined time period (typically in a range of 2-24 h) and then filtered using appropriate filter membranes (typically PTFE-filters with 0.45 μm pore size). Filter absorption is avoided by discarding the first few drops of filtrate. The amount of dissolved drug substance is determined by UV spectroscopy. In addition, the pH of the aqueous saturated solution is measured using a glass-electrode pH meter.
The equilibrium solubility of N-(3-(5-((1-Ethylpiperidin-4-yl)(methyl)amino)-3-(pyrimidin-5-yl)-1H-pyrrolo[3,2-b]pyridin-1-yl)-2,4-difluorophenyl)propane-1-sulfonamide monohydrochloride salt in various media was determined.
The solubility of N-(3-(5-((1-Ethylpiperidin-4-yl)(methyl)amino)-3-(pyrimidin-5-yl)-1H-pyrrolo[3,2-b]pyridin-1-yl)-2,4-difluorophenyl)propane-1-sulfonamide monosuccinate salt in various media was determined.

[7] = HsdHan:WIST, plasma, 40 mg/kg oral

CCCS(=O)(=O)Nc1ccc(F)c(-n2cc(-c3cncnc3)c3nc(N(C)C4CCN(CC)CC4)ccc32)c1F.Cl [Monohydrochloride Salt, N-(3-(5-((1-Ethylpiperidin-4-yl)(methyl)amino)-3-(pyrimidin-5-yl)-1H-pyrrolo[3,2-b]pyridin-1-yl)-2,4-difluorophenyl)propane-1-sulfonamide monohydrochloride salt]
Intrinsic Dissolution Rate [1]: 4 μg/cm^2/min. | Crystallinity and polymorphic form after compression (XRPD) ([2]; 2000 N for 1 s to a tablet (diameter 5 mm)): slight decrease in crystallinity but no change in polymorphic form | Crystallinity and polymorphic form after milling (XRPD) ([2]; swing mill for 10 min. at 30 rps): significant decrease in crystallinity but no change in polymorphic form | AUD ([3]; 40 mg/kg oral): 0.312 µM·h | AUD ([3]; 80 mg/kg oral): 1.04 µM·h | Cmax ([3]; HsdHan:WIST, in vivo, 80 mg/kg oral): 419 nM | bioavailability ([3]; HsdHan:WIST, plasma, po, 40 mg/kg dose): 1% | Cmax [3, 7]: 123 nM | Tmax [3, 7]: 3.3 h | Tmax ([3]; HsdHan:WIST, plasma, 80 mg/kg oral): 4 h | concentration at 24 h ([3]; Time 0.5, 40 mg/kg oral): 3.53 nM | concentration at 24 h ([3]; Time 1.0, 40 mg/kg oral): 6.56 nM | concentration at 24 h ([3]; Time 1.0, 80 mg/kg oral): 3.69 nM | concentration at 24 h ([3]; Time 2.0, 40 mg/kg oral): 107 nM | concentration at 24 h ([3]; Time 2.0, 80 mg/kg oral): 69.9 nM | concentration at 24 h ([3]; Time 4.0, 40 mg/kg oral): 60.9 nM | concentration at 24 h ([3]; Time 4.0, 80 mg/kg oral): 419 nM | concentration at 24 h ([3]; Time 6.0, 40 mg/kg oral): 13.3 nM | concentration at 24 h ([3]; Time 6.0, 80 mg/kg oral): 69 nM | Intrinsic Dissolution Rate ([4]; pH of medium 2.2, 37° C.): 121 μg/cm^2/min. | Intrinsic Dissolution Rate ([4]; pH of medium 3.0, 37° C.): 80 μg/cm^2/min. | Intrinsic Dissolution Rate ([4]; pH of medium 4.5, 37° C.): 38 μg/cm^2/min. | Intrinsic Dissolution Rate ([4]; pH of medium 6.8, 37° C.): 15 μg/cm^2/min. | Intrinsic Dissolution Rate ([4]; pH of medium 7.4, 37° C.): 3 μg/cm^2/min. | Change in structure (XRPD) after sorption-desorption experiment ([5]; XRPD before and after): no significant change in structure occurred | Reversible weight gain (isotherm sorption-desorption) ([5]; range from 0-80% relative humidity): approximately 2.5% | Reversible weight gain (isotherm sorption-desorption) ([5]; range from 0-90% relative humidity): approximately 400% | Weight gain (sorption-desorption) ([5]; range from 10-90% relative humidity, scale-up sample): approximately 2.4% | solubility at 2 h ([6]; 0.01 M HCl, simulated gastric fluid, HCl (0.01M)): 20 µg/mL | solubility at 2 h ([6]; 0.1 M HCl, simulated gastric fluid, HCl (0.1M)): 60 µg/mL | solubility at 2 h ([6]; aqueous buffer, 0.1M Citric acid): 400 µg/mL | solubility at 2 h ([6]; aqueous buffer, 0.1M NaOH): > 10000 µg/mL | solubility at 2 h ([6]; aqueous buffer, Acetate Buffer (pH 5.0)): 200 µg/mL | solubility at 2 h ([6]; aqueous buffer, McIlvaine Buffer (pH 2.2)): 400 µg/mL | solubility at 2 h ([6]; aqueous buffer, McIlvaine Buffer (pH 3.0)): 200 µg/mL | solubility at 2 h ([6]; aqueous buffer, McIlvaine Buffer (pH 4.0)): 100 µg/mL | solubility at 2 h ([6]; aqueous buffer, McIlvaine Buffer (pH 4.5)): 200 µg/mL | solubility at 2 h ([6]; aqueous buffer, McIlvaine Buffer (pH 5.0)): 200 µg/mL | solubility at 2 h ([6]; aqueous buffer, McIlvaine Buffer (pH 6.0)): 100 µg/mL | solubility at 2 h ([6]; aqueous buffer, McIlvaine Buffer (pH 6.8)): 100 µg/mL | solubility at 2 h ([6]; aqueous buffer, McIlvaine Buffer (pH 7.4)): 10 µg/mL | solubility at 2 h ([6]; aqueous buffer, Phosphate Buffer (pH 6.8)): 200 µg/mL | solubility at 2 h ([6]; aqueous buffer, Sorensen Buffer (pH 9.0)): 10 µg/mL | solubility at 2 h ([6]; aqueous buffer, Sorensen Buffer (pH 11)): 700 µg/mL | solubility at 2 h ([6]; Simulated intestinal fluid (FaSSIF)): 2 µg/mL | solubility at 2 h ([6]; Simulated intestinal fluid (FeSSIF)): 30 µg/mL | solubility at 2 h ([6]; water): 100 µg/mL
